Assay results taken from a melting point compilation (Tetko et al.; mined from patent text by program, amines drawn as free bases though some values may be those of a salt).

melting point | SMILES
66.2 °C | CCCCCCCCOc1ccc(-c2ncc(OC(=O)[C@@H](Cl)[C@@H](C)CC)cn2)c(F)c1F
162 to 164 °C | COC(=O)C(C#N)=Cc1cc(OC)c(OC)cc1[N+](=O)[O-]
92 to 93 °C | Cc1oc(-c2ccccc2)nc1CCC(=O)c1ccc(CCC=O)cc1
127 °C | CCC(=O)Nc1c(C#N)cnn1-c1ccc(OC(F)(F)F)cc1Cl
203 to 204 °C | O=C(N[C@H](Cc1ccc(C(F)(F)F)cc1)[C@@H](O)c1ccc(F)cc1)C1CCCCC1 (racemic)
224 to 226 °C | Cn1cc2c3c(c(Cl)cc2n1)CCC3=CC#N
103 to 104 °C | CCOC(=O)Cc1c2cc(OC)ccc2n2c(Cc3ccccn3)nccc12
180 to 182 °C | CCSC(N)=C(C#N)C#N
103 to 104 °C | CCOC(=O)c1nc(-c2ccc(Cl)cc2)c(F)c(N)c1Cl
134 °C | N#Cc1cccc(C(F)(F)F)c1O
135 to 136 °C | Cc1cc(CC(=O)O)cc2c1NC(C(F)(F)F)CC2 (centres undefined)
146 to 149 °C | COc1ccc(-c2nc(C(F)F)oc2-c2ccc(OCCNC(N)=O)cc2)cc1
167 to 170 °C | O=C(O)COc1ccc(SCc2cc(-c3ccc(C(F)(F)F)cc3)on2)c2c1CCCC2
191 °C | CCN(CC)S(=O)(=O)c1ccc(N2N=C(C)C(=CNc3ccccc3OC)C2=O)cc1
157 °C | O=C(c1cc(Cl)cc(Cl)c1)c1cc(Cl)cc(Cl)c1
94 to 95 °C | C=CCC1(CCNC(=O)C2CC2)c2cc(OC)ccc2CCC12OCCO2 (centres undefined)
280 to 284 °C | O=C1Nc2ccc(F)c(F)c2C1c1ncnc2nn(C3CCCC3)cc12 (centres undefined)
152 to 154 °C | C/C(=C\c1ccc(OCC(=O)O)cc1)c1ccc2c(c1)C(C)(C)CCC2(C)C
148 to 150 °C | CCOC1C(NC(=O)C(F)(F)F)CC(OC(=O)c2ccc([N+](=O)[O-])cc2)OC1C (centres undefined)
160 to 180 °C | OCCCc1ccc2c(c1)Cc1cc(CCCO)ccc1-2
103 to 105 °C | COC(=O)c1ccc(Oc2ccc([N+](=O)[O-])cc2C(=O)OC)cc1
125 to 127 °C | CCOc1ccccc1C(=O)CCC(=O)O
155 to 156 °C | CSc1cccc(-n2cnc(-c3ccc(F)cc3)c2-c2ccncc2)c1

melting point | SMILES
183 to 186 °C | CCOc1ccc2nc(NC(=O)N(C)C)sc2c1
80 to 83 °C | O=S(=O)(Oc1ccc(Cl)c2cccnc12)C(F)(F)F
147 °C | CSC[C@H](Nc1cc(F)ccc1[N+](=O)[O-])C(=O)O
86 to 88 °C | CC(C)N(CCN(C(=O)N(C)C)c1cccc(N)n1)C(C)C
97 °C | CCCCc1ncc(C(=O)O)s1
64 to 66 °C | CCN(CC)CCNC(=O)c1cccc2cc3cccc(I)c3nc12
192 °C | CN1C(=O)N(c2ccccc2O)Cc2cnc(Nc3ccccc3)nc21
146 to 151 °C | CN1CCN(CCCNc2ncc3cc(-c4c(Cl)cccc4Cl)c(NC(=O)Nc4ccc(C(F)(F)F)cc4)nc3n2)CC1
102 to 104 °C | Cc1cccn2cc(CN3CCN(c4ccc(Cl)cc4)CC3)nc12
168 to 169 °C | Cn1c(CNCC(C)(C)S(C)(=O)=O)cc2cc(NC(=O)c3ccc(OCC4CC4)cc3)ccc21
187 to 188 °C | CC1=C(C(=O)OC(C)(C)C)C(c2ccc(Br)cc2F)C(C(=O)OC(C)(C)C)=C(C)N1
151 to 153 °C | Cc1cccc2c1nc(C(C)C)n2Cc1c(F)cccc1F
156 to 158 °C | O=c1ccn(-c2cccc(C(F)(F)F)c2)nc1-c1c(F)cnn1-c1ccccc1
192 to 193 °C | CN1CCN(c2ccccc2C=CC(=O)Nc2ccc(Cl)c(Cl)c2)CC1
225 to 226 °C | O=C(c1ccccc1Cl)c1cc2c(cc1NC=C[N+](=O)[O-])CCC2
90 to 92 °C | CCN(CC)CCn1c(=O)c2cnc3c(cnn3CC)c2n2nc(C)cc12
140 to 142 °C | CCc1cc(CCc2nc3ccccc3o2)c(=O)[nH]c1COCc1ccccc1
137 to 139 °C | COc1ccc(C(=O)c2[nH]c3cc(Cl)ccc3c2NC(C)=O)cc1
52 to 54 °C | CC(C)(C)c1cc(CCCBr)cc(C(C)(C)C)c1O
95 to 97 °C | CCC(CC)N(Cc1ccc(C(=O)OC)cc1)S(=O)(=O)c1ccc(Cl)cc1
60 °C | CSc1ccc2c(c1)N(CCCN1CCC(C(O)F)CC1c1ccccc1)c1ccccc1S2 (centres undefined)
184 to 185 °C | CC(=O)Oc1cc2c(c3ccccc13)Nc1ccccc1S2
96 to 98 °C | CCCNC(=O)Cc1cnc2cccc(C)n2c1=O

melting point | SMILES
190 °C | CC1(C)Oc2ccc(S(=O)(=O)C(F)(F)F)cc2[C@@H](N2Cc3ccccc3C2=O)[C@@H]1O[N+](=O)[O-] (relative stereo)
224 to 225 °C | ON=C(c1ccccc1)c1ccc(C(=NO)c2ccc(C(=NO)c3ccccc3)cc2)cc1
177 to 179 °C | O=c1[nH]c2c(F)cc([N+](=O)[O-])cc2o1
178 to 179 °C | CCn1nc2c(N)nc3cc(OS(=O)(=O)C(F)(F)F)ccc3c2c1CCc1ccccc1
127 to 129 °C | CC(=O)Oc1coc(-c2cccc(N)c2)cc1=O
108 to 110 °C | O=C(CCCc1cccnc1)N1CCC(CC(c2ccc(F)cc2)c2ccc(F)cc2)CC1
110 to 112 °C | CCOC(=O)c1cc(OC(C)=O)c2c(OC)ccc(OC)c2c1
226 to 228 °C | CC(C)NC(=O)c1cccc(I)c1C(=O)Nc1cc(C(F)(F)F)nn1-c1ccccc1Cl
101 to 103 °C | CC(C)c1nc(CCOCc2ccccc2)n(C)c1Sc1cc(Cl)cc(Cl)c1
104 to 106 °C | CCCCCCCCCCCCCCOc1cccc(CC(=O)Nc2cccc(CBr)c2)c1
92 to 93 °C | COc1ccc(Cc2ccc(Sc3ccccc3)s2)cc1
191 to 193 °C | C#CCOc1ccc2c(C)cc(=O)oc2c1C(=O)C=Cc1cc(OC)c(OC)c(OC)c1
135 to 139 °C | Cc1ccc(C(=O)OC2CCC3(C)C(=CCC4C3CCC3(C)C(=NO)CCC43)C2)cc1 (centres undefined)
33 to 36 °C | CCOc1cc(C=O)cc2c1OC(C)(C)C2
138 to 139 °C | Cc1c(NC(=O)c2ccc(-c3ccccc3)c(F)c2)ccc2cc(CN3CCCCC3)cnc12
208 to 211 °C | CC1CC(O)=NN1c1ccc(Cl)c(Cl)c1 (centres undefined)
157 °C | Fc1ccc(F)c(CN2CCNc3ncc(-c4ccnc(N5CCOCC5)c4)cc32)c1Cl
253 to 254 °C | COc1cc(C(=O)NS(=O)(=O)c2ccccc2)ccc1Cc1csc2ccc(NC(=O)OC3CCCC3)cc12
106 °C | COC(=O)c1ccc(C(=O)c2c(C)c(OCc3cccc(OC)c3)c3ccccn23)cc1
196 to 198 °C | NS(=O)(=O)c1ccc(-n2nc(C(F)(F)F)cc2-c2ccc(-c3cscn3)c(F)c2)cc1F
142 °C | Cc1cc(C)cc(NCc2ccc3nc(NC4CCN(CCS(N)(=O)=O)CC4)n(Cc4nc(C)ccc4O)c3c2)c1
> 260 °C | CNS(=O)(=O)c1ccc(NN=C2C(=O)Nc3ccc4ncsc4c32)cc1

SMILES | melting point
CCSc1c(C#N)nn(-c2c(Cl)cc(C(F)(F)F)cc2Cl)c1Br | 134 to 140 °C
